Where “and” joins values, the source holds several entries; their conditions need not be identical. Equal values may be shown once. Toxic doses and inconclusive results are not listed. No stated cut-off is given here; in the data, active means T/C of 150% or more; inactive means T/C below 125%.
System: L1210 leukemia ip in BDF1 mice, survival T/C
Assay: NCI In Vivo Anticancer Drug Screen. Data for tumor model L1210 Leukemia (intraperitoneal) in B6D2F1 (BDF1) mice
Settings: endpoint: mean survival time, higher = longer survival
Procedure, shortened: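 Each compound was tested against a transplantable tumor grown in mice. The endpoint was survival, with treated animals benchmarked against vehicle controls as a simple ratio.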

[1] = dose: 50.0 mg/kg/injection, schedule: Q01DX001 (ip), vehicle: saline
[2] = dose: 100.0 mg/kg/injection, schedule: Q01DX001 (ip), vehicle: saline
[3] = dose: 200.0 mg/kg/injection, schedule: Q01DX001 (ip), vehicle: saline
[4] = dose: 75.0 mg/kg/injection, schedule: Q01DX001 (ip), vehicle: saline
[5] = dose: 100.0 mg/kg/injection, schedule: Q01DX009 (ip), vehicle: saline
[6] = dose: 100.0 mg/kg/injection, schedule: Q04DX003 (ip), vehicle: saline
[7] = dose: 200.0 mg/kg/injection, schedule: Q01DX009 (ip), vehicle: saline
[8] = dose: 200.0 mg/kg/injection, schedule: Q04DX003 (ip), vehicle: saline
[9] = dose: 400.0 mg/kg/injection, schedule: Q01DX009 (ip), vehicle: saline
[10] = dose: 400.0 mg/kg/injection, schedule: Q04DX003 (ip), vehicle: saline
[11] = dose: 25.0 mg/kg/injection, schedule: Q04DX003 (ip), vehicle: Klucel (hydroxypropylcellulose) (HPC)
[12] = dose: 50.0 mg/kg/injection, schedule: Q04DX003 (ip), vehicle: Klucel (hydroxypropylcellulose) (HPC)
[13] = dose: 100.0 mg/kg/injection, schedule: Q04DX003 (ip), vehicle: Klucel (hydroxypropylcellulose) (HPC)
[14] = dose: 10.0 mg/kg/injection, schedule: Q01DX001 (ip), vehicle: saline
[15] = dose: 20.0 mg/kg/injection, schedule: Q01DX001 (ip), vehicle: saline
[16] = dose: 100.0 mg/kg/injection, schedule: Q04DX002 (ip), vehicle: Klucel (hydroxypropylcellulose) (HPC)
[17] = dose: 200.0 mg/kg/injection, schedule: Q04DX002 (ip), vehicle: Klucel (hydroxypropylcellulose) (HPC)
[18] = dose: 400.0 mg/kg/injection, schedule: Q04DX002 (ip), vehicle: Klucel (hydroxypropylcellulose) (HPC)
[19] = dose: 25.0 mg/kg/injection, schedule: Q01DX009 (ip), vehicle: Klucel (hydroxypropylcellulose) (HPC)
[20] = dose: 50.0 mg/kg/injection, schedule: Q01DX009 (ip), vehicle: Klucel (hydroxypropylcellulose) (HPC)
[21] = dose: 100.0 mg/kg/injection, schedule: Q01DX009 (ip), vehicle: acetone
[22] = dose: 200.0 mg/kg/injection, schedule: Q01DX009 (ip), vehicle: acetone

Measured: T/C

CSc1ccc(C2NC(=O)NC2=O)cc1 (configuration not stated)
inactive: [1] 102 % of control | [2] 100 % of control | [3] 96 % of control | dose: 400.0 mg/kg/injection, schedule: Q01DX001 (ip), vehicle: saline 102 % of control

Cc1ccc(N)cc1S(=O)(=O)F
inactive: [4] 107 % of control | dose: 150.0 mg/kg/injection, schedule: Q01DX001 (ip), vehicle: saline 98 % of control | dose: 300.0 mg/kg/injection, schedule: Q01DX001 (ip), vehicle: saline 103 % of control

CN(C)N=Nc1ccc(S(N)(=O)=O)cc1
inactive: dose: 50.0 mg/kg/injection, schedule: Q01DX001 (ip), vehicle: saline with Tween-80 98 % of control | dose: 50.0 mg/kg/injection, schedule: Q04DX003 (ip), vehicle: saline with Tween-80 103 % of control and 105 % of control | dose: 100.0 mg/kg/injection, schedule: Q01DX001 (ip), vehicle: saline with Tween-80 102 % of control | dose: 100.0 mg/kg/injection, schedule: Q04DX003 (ip), vehicle: saline with Tween-80 103 % of control and 105 % of control | dose: 200.0 mg/kg/injection, schedule: Q01DX001 (ip), vehicle: saline with Tween-80 104 % of control | dose: 200.0 mg/kg/injection, schedule: Q04DX003 (ip), vehicle: saline with Tween-80 105 % of control | dose: 400.0 mg/kg/injection, schedule: Q01DX001 (ip), vehicle: saline with Tween-80 105 % of control | dose: 400.0 mg/kg/injection, schedule: Q04DX003 (ip), vehicle: saline with Tween-80 106 % of control and 112 % of control

CN(C)Cc1ccccc1COC(=O)c1ccc([N+](=O)[O-])cc1
inactive: dose: 75.0 mg/kg/injection, schedule: Q04DX002 (ip), vehicle: Klucel (hydroxypropylcellulose) (HPC) 97 % of control | dose: 150.0 mg/kg/injection, schedule: Q04DX002 (ip), vehicle: Klucel (hydroxypropylcellulose) (HPC) 105 % of control | dose: 300.0 mg/kg/injection, schedule: Q04DX002 (ip), vehicle: Klucel (hydroxypropylcellulose) (HPC) 97 % of control

O=[N+]([O-])c1[nH]c(Br)c(Br)c1Br
inactive: dose: 0.75 mg/kg/injection, schedule: Q01DX009 (ip), vehicle: Klucel (hydroxypropylcellulose) (HPC) 92 % of control | dose: 1.5 mg/kg/injection, schedule: Q01DX009 (ip), vehicle: Klucel (hydroxypropylcellulose) (HPC) 89 % of control | dose: 3.0 mg/kg/injection, schedule: Q01DX009 (ip), vehicle: Klucel (hydroxypropylcellulose) (HPC) 89 % of control

CC1(C)CC(=O)c2c(cc3c(c2O)C(=O)CC(C)(C)O3)O1
inactive: [5] 94 % of control | [6] 100 % of control | [7] 94 % of control | [8] 94 % of control | [9] 95 % of control | [10] 106 % of control

CCOC(=O)CNC(N)=O
inactive: [5] 96 % of control | [7] 107 % of control | [9] 96 % of control

C[As](=O)(O)c1ccc(N)cc1
inactive: [11] 95 % of control | [12] 93 % of control | [13] 90 % of control and 92 % of control

CCCCCCCCCCCCC[n+]1cccc(C#N)c1
inactive: dose: 5.0 mg/kg/injection, schedule: Q04DX003 (ip), vehicle: saline 100 % of control | [14] 94 % of control | dose: 10.0 mg/kg/injection, schedule: Q04DX003 (ip), vehicle: saline 96 % of control | [15] 103 % of control | dose: 20.0 mg/kg/injection, schedule: Q04DX003 (ip), vehicle: saline 96 % of control

N#CSCc1c(Cl)c(Cl)c(CSC#N)c(Cl)c1Cl
inactive: dose: 75.0 mg/kg/injection, schedule: Q01DX009 (ip), vehicle: saline 96 % of control | dose: 150.0 mg/kg/injection, schedule: Q01DX009 (ip), vehicle: saline 94 % of control | dose: 300.0 mg/kg/injection, schedule: Q01DX009 (ip), vehicle: saline 93 % of control

Cc1ccc2c(c1C)-c1c(ccc(C)c1C)C(=O)C2=O
inactive: dose: 50.0 mg/kg/injection, schedule: Q04DX002 (ip), vehicle: Klucel (hydroxypropylcellulose) (HPC) 91 % of control | [16] 102 % of control and 113 % of control | [17] 94 % of control | [18] 94 % of control and 100 % of control

O=C(O)COc1ccc(Cl)cc1CCl
inactive: [13] 100 % of control | dose: 200.0 mg/kg/injection, schedule: Q04DX003 (ip), vehicle: Klucel (hydroxypropylcellulose) (HPC) 98 % of control | dose: 400.0 mg/kg/injection, schedule: Q04DX003 (ip), vehicle: Klucel (hydroxypropylcellulose) (HPC) 102 % of control

CNC(=O)OCc1c(COC(=O)NC)c(-c2ccc(Cl)c(Cl)c2)n2c1CCC2
inactive: dose: 12.5 mg/kg/injection, schedule: Q01DX009 (ip), vehicle: Klucel (hydroxypropylcellulose) (HPC) 106 % of control | [19] 109 % of control | [20] 124 % of control

OCC1CC(n2cnc3c(=S)nc[nH]c32)C(O)C1O (configuration not stated)
inactive: [1] 96 % of control | [2] 96 % of control | [3] 96 % of control

CN1CCN(C(=O)OCCOCCOC(=O)N2CCN(C)CC2)CC1
inactive: dose: 150.0 mg/kg/injection, schedule: Q01DX Z (ip), vehicle: saline 108 % of control | dose: 230.0 mg/kg/injection, schedule: Q01DX Z (ip), vehicle: saline 93 % of control | dose: 350.0 mg/kg/injection, schedule: Q01DX Z (ip), vehicle: saline 100 % of control

CN1c2ccc3ccccc3c2Sc2ccc3ccccc3c21
inactive: [21] 100 % of control | [6] 94 % of control | [22] 100 % of control | [8] 95 % of control | dose: 400.0 mg/kg/injection, schedule: Q01DX009 (ip), vehicle: acetone 88 % of control | [10] 97 % of control

O=C(Nc1ccccc1F)Sc1c(Cl)c(Cl)nc(Cl)c1Cl
inactive: [19] 96 % of control and 101 % of control | [11] 105 % of control | [20] 94 % of control and 101 % of control | [12] 102 % of control | [16] 101 % of control and 107 % of control | [13] 113 % of control | [17] 96 % of control and 106 % of control | [18] 103 % of control and 115 % of control

COC1C(=O)CCC2(CO2)C1(O)C1(C)OC1CCC(C)C (configuration not stated)
inactive: [21] 95 % of control | [22] 92 % of control

CCOC(=O)P(C(=O)OCC)C(=O)OCC
inactive: [4] 97 % of control

CC[N+]1(CC)CCC(OC(=O)C(O)(c2ccccc2)c2ccccc2)C1 (configuration not stated)
inactive: dose: 5.0 mg/kg/injection, schedule: Q01DX001 (ip), vehicle: saline 97 % of control | [14] 92 % of control | [15] 97 % of control | dose: 40.0 mg/kg/injection, schedule: Q01DX001 (ip), vehicle: saline 97 % of control | dose: 80.0 mg/kg/injection, schedule: Q01DX001 (ip), vehicle: saline 103 % of control

CCOC(=O)n1[nH][nH]c2c(c(=O)n(C)c(=O)n2C)n1C(=O)OCC
inactive: dose: 75.0 mg/kg/injection, schedule: Q04DX003 (ip), vehicle: saline 95 % of control | dose: 150.0 mg/kg/injection, schedule: Q04DX003 (ip), vehicle: saline 95 % of control | dose: 300.0 mg/kg/injection, schedule: Q04DX003 (ip), vehicle: saline 94 % of control

N=c1c2ncn(Cc3cccc(C(F)(F)F)c3)c2ncn1O
inactive: dose: 0.78 mg/kg/injection, schedule: Q01DX009 (ip), vehicle: Klucel (hydroxypropylcellulose) (HPC) 104 % of control | dose: 1.56 mg/kg/injection, schedule: Q01DX009 (ip), vehicle: Klucel (hydroxypropylcellulose) (HPC) 92 % of control | dose: 1.56 mg/kg/injection, schedule: Q04DX003 (ip), vehicle: Klucel (hydroxypropylcellulose) (HPC) 92 % of control | dose: 3.12 mg/kg/injection, schedule: Q01DX009 (ip), vehicle: Klucel (hydroxypropylcellulose) (HPC) 95 % of control | dose: 3.12 mg/kg/injection, schedule: Q04DX003 (ip), vehicle: Klucel (hydroxypropylcellulose) (HPC) 102 % of control

Reference: PubChem BioAssay AID248 (DTP/NCI, 2004)
